Measurements: patent EP0021292A1, “Alkoxybenzylpyridopyrimidines, methods for their preparation and pharmaceutical formulations thereof” (THE WELLCOME FOUNDATION LIMITED, priority 1979, dated 1981)

Legend:
[1] = target: Histamine N-methyl-transferase ( HMT ) (Homo sapiens, UniProt P50135); assay: Inhibition of histamine N-methyltransferase (HMT); assay type: biochemical; details: read-out: % inhibition of HMT at 10^-5M
Description: EXAMPLE 4 Inhibition of Histamine N-methyl-transferase ( HMT ) by 2,4-Diamino-6-benzylpyrido(2,3-d)pyrimidine
The effect of the test compounds used in Example 3 against HMT was determined. An inhibition of less than 20% was considered acceptable and the lack of any effect on this enzyme is most desirable since any interference with histamine metabolism should be minimized.

[2] = target: T1, DHFR partially purified from rat liver (Rattus norvegicus, UniProt Q920D2); assay: Inhibition of mammalian dihydrofolate reductase (DHFR); assay type: biochemical
T1 construct: DHFR partially purified from rat liver; from tissue; host or cells: rat liver
T1 sequence (Q920D2 1-187): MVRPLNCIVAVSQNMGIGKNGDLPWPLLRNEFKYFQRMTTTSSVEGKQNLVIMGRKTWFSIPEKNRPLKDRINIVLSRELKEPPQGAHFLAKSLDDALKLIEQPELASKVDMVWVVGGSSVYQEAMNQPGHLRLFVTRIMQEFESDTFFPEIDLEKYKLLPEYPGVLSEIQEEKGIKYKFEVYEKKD
Description: The inhibitory effect of the test compounds against DHFR partially purified from rat liver was determined.

Solid Walker 256 tumors = assay: Antitumor effect on subcutaneously implanted Walker 256 tumors in rats; assay type: in vivo; details: for mean tumor volume as % of the untreated group: after 17 days
Description: Solid Walker 256 tumors were implanted subcutaneously into three groups of rats. On the third day after implantation with the tumors drug treatment was commenced and continued for 5 successive days. One group of rats was treated with 2,4-diamino-6-(2,5-dimethoxybenzyl)-5-methylpyrido(2,3-d) pyrimidine at a dose of 25mg/kg q.i.d., a second group was treated with the same compound at 15 mg/kg b.i.d.; the third group were left untreated as controls.
In a second study tumors were implanted subcutaneously and drug treatment delayed until 10 days after implantation. Drug treatment consisted of 30 mg/kg q.i.d. on days 10-13 and 50 mg/kg on days 20, 24 and 28 after tumor implantation. Mean tumor volumes were measured during the course of this study. […] Twenty-three days after tumor implantation T/C was 0.03.

[3] = Acute toxicity in mice (i.p.); details: mouse, in vivo, ip
Description: The acute toxicity of the title compounds was determined in mice ( i.p. ). The following results were obtained:-

Leukemia P388 cells = assay: Antileukemic effect on intraperitoneally inoculated P388 leukemia in mice; assay type: in vivo, CDF, Charles River female mice; details: for % increases in life span: mice; for antileukemic activity: mice, 22, 33.5, 50 and 75 mg/kg, same schedule (twice daily for three days)
Source text: Leukemia P388 cells were inoculated intraperitoneally in CDF, Charles River female mice, each animal receiving 10^6 cells. On the second day after implantation with the leukemic cells, drug treatment was commenced and continued twice daily for three days.

Chain of Histamine N-methyl-transferase ( HMT ) (P50135 whole entry, species assumed): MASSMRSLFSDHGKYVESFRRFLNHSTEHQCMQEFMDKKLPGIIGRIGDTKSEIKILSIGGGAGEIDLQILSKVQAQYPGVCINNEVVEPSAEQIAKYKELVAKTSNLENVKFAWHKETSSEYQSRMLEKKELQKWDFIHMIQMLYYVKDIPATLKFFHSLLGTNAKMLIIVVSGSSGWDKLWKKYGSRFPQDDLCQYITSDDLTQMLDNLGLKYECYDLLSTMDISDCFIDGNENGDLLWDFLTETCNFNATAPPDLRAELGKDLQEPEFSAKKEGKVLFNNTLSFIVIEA

Structure (SMILES)	inhibition at 10 µM [1]	IC50 [2]	further results
COc1ccc(Cc2cnc3nc(N)nc(N)c3c2C)cc1 [the 1st table, row 8]	20%	53 nM	
COc1ccc(OC)c(Cc2cnc3nc(N)nc(N)c3c2C)c1 [2,4-Diamino-5-methyl-6-(2,5-dimethoxybenzyl)pyrido-(2,3-d)pyrimidine)]			mean tumor volume as % of the untreated group (Solid Walker 256 tumors; 15 mg/kg b.i.d. for 5 successive days from third day after implantation): 10%; mean tumor volume as % of the untreated group (Solid Walker 256 tumors; 25mg/kg q.i.d. for 5 successive days from third day after implantation): 29%; mean tumor volume during the period of observation (Solid Walker 256 tumors; second study, 30 mg/kg q.i.d. on days 10-13 and 50 mg/kg on days 20, 24 and 28): decrease in mean tumor volume; T/C (Solid Walker 256 tumors; second study, 30 mg/kg q.i.d. on days 10-13 and 50 mg/kg on days 20, 24 and 28, twenty-three days after tumor implantation): 0.03; LD50 [3]: ~500 mg/kg; % increases in life span (Leukemia P388 cells; 22 mg/kg twice daily for three days from second day): 145%; % increases in life span (Leukemia P388 cells; 33.5 mg/kg twice daily for three days from second day): 159%; % increases in life span (Leukemia P388 cells; 50 mg/kg twice daily for three days from second day): 140%; % increases in life span (Leukemia P388 cells; 75 mg/kg twice daily for three days from second day): 154%; drug-related toxicity (Leukemia P388 cells; mice, 22, 33.5, 50 and 75 mg/kg twice daily for three days): no evidence of drug-related toxicity
Cc1c(Cc2ccccc2Cl)cnc2nc(N)nc(N)c12 [the 1st table, row 5]	59%	16 nM	
COc1ccc(Cc2cnc3nc(N)nc(N)c3c2C)cc1OC	19%	7.8 nM	
COc1ccccc1Cc1cnc2nc(N)nc(N)c2c1C	18%	50 nM	
Cc1c(Cc2ccccc2)cnc2nc(N)nc(N)c12 [-CH2 Ph]	51%	40 nM	
COc1ccc(OC)c(Cc2cnc3nc(N)nc(N)c3c2C)c1 [the 1st table, row 11]	11%		
Nc1nc(N)c2cc(Cc3ccccc3)cnc2n1	48%	250 nM	
CCc1ccc(Cc2cnc3nc(N)nc(N)c3c2C)cc1	55%	90 nM	
COc1ccc(Cc2cnc3nc(N)nc(N)c3c2C)cc1			antileukemic activity (Leukemia P388 cells): inactive at all doses
Cc1ccc(Cc2cnc3nc(N)nc(N)c3c2C)cc1		27 nM	
Cc1c(Cc2ccccc2Cl)cnc2nc(N)nc(N)c12 [2-chlorobenzyl compound]			antileukemic activity (Leukemia P388 cells): only marginal or slight activity
